Data published in PubChem BioAssay (NCI).
Values joined by “and” are separate entries in the source; they are usually repeats but may differ in a detail not shown here. Equal entries are not always repeated.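 Method: 48-hour compound exposure of cells in 96-well plates, five concentrations, linear interpolation of endpoints. GI50 = concentration required for 50% inhibition of growth. The concentration for full growth arrest is given as TGI.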

What was measured:
Experiment in all cases: growth of human tumour cells (NCI), 48 h
K-562 leukemia = test system: K-562 leukemia
ACHN renal = test system: ACHN renal
PC-3 prostate = test system: PC-3 prostate
MALME-3M melanoma = test system: MALME-3M melanoma
CAKI-1 renal = test system: CAKI-1 renal
UACC-257 melanoma = test system: UACC-257 melanoma
UACC-62 melanoma = test system: UACC-62 melanoma
MCF7 breast = test system: MCF7 breast
SN12C renal = test system: SN12C renal
OVCAR-3 ovarian = test system: OVCAR-3 ovarian

SMILES	TGI (K-562 leukemia)	TGI (ACHN renal)	TGI (PC-3 prostate)	TGI (MALME-3M melanoma)	TGI (CAKI-1 renal)	TGI (UACC-257 melanoma)	TGI (UACC-62 melanoma)	TGI (MCF7 breast)	TGI (SN12C renal)	TGI (OVCAR-3 ovarian)	GI50 (K-562 leukemia)	GI50 (ACHN renal)	GI50 (PC-3 prostate)	GI50 (MALME-3M melanoma)	GI50 (CAKI-1 renal)	GI50 (UACC-257 melanoma)	GI50 (UACC-62 melanoma)	GI50 (MCF7 breast)	GI50 (SN12C renal)	GI50 (OVCAR-3 ovarian)
O=C(O)C1CCCN1Cc1c[nH]c2ccccc12 (stereo not given)	> 100 µM	> 100 µM	> 100 µM	> 100 µM	> 100 µM	> 100 µM	> 100 µM	> 100 µM	> 100 µM	> 100 µM										
COc1c(O)cc2oc3cc(O)c(CC=C(C)C)c(O)c3c(=O)c2c1C/C=C(\C)CCC=C(C)C	16.6 µM	9.4 µM	11.2 µM	12 µM	9.39 µM	10.5 µM	11.3 µM	13.7 µM	10.9 µM	9.71 µM	7.29 µM	4.98 µM	5.55 µM	6.34 µM	4.69 µM	5.63 µM	5.51 µM	6.15 µM	5.68 µM	5.31 µM
O=C(CSc1nc2ccc([N+](=O)[O-])cc2[nH]1)Nc1cccc(C(F)(F)F)c1	> 39.8 µM	8.21 µM	11.9 µM	6.66 µM	7.15 µM	6.63 µM	8.85 µM	9.44 µM	10.6 µM	11 µM	2.16 µM	2.42 µM	2.47 µM	1.48 µM	1.76 µM	1.33 µM	1.1 µM	1.95 µM	2.18 µM	1.66 µM
O=C(Oc1cccc(Nc2ncnc3ccccc23)c1)c1ccccc1Cl	> 100 µM	62 µM	45.9 µM	57.1 µM	35.8 µM	57.1 µM	80.6 µM	37.1 µM	49.6 µM	56.9 µM	43.1 µM	23.1 µM	17.8 µM	23.9 µM	9.6 µM	26.6 µM	22.5 µM	11.7 µM	15.5 µM	16.7 µM
O=C1C(Cl)=C(Oc2ccccc2)C(=O)c2ccccc21	> 100 µM	3.14 µM	20.9 µM	3.41 µM	4.03 µM	14.1 µM	11.7 µM	25.2 µM	29.5 µM	3.42 µM	3.17 µM	1.63 µM	4.34 µM	1.6 µM	1.8 µM	4.65 µM	3.46 µM	7.3 µM	11.2 µM	1.83 µM
O=C1c2cccnc2-c2nc(-c3ccccn3)cc3c2c1nc1ccccc13	0.632 µM	0.368 µM	1.85 µM	1.72 µM	0.781 µM	1.97 µM	0.63 µM	2.22 µM	1.19 µM	0.309 µM	0.136 µM	0.0333 µM	0.557 µM	0.377 µM	0.119 µM	0.533 µM	0.191 µM	0.463 µM	0.21 µM	0.161 µM
Cn1cc(-c2nc(-c3c[nH]c4ncccc34)cs2)c2cc(Cl)ccc21	15.2 µM	> 100 µM	> 100 µM	56.7 µM	9.22 µM	16.5 µM	> 100 µM	> 100 µM	94.2 µM	29.7 µM	2.76 µM	3.6 µM	3.62 µM	12.5 µM	2.65 µM	3.26 µM	8.8 µM	1.16 µM	4.72 µM	7.47 µM
O=C(Nc1ncc([N+](=O)[O-])s1)c1cccc([N+](=O)[O-])c1	> 40 µM	> 68.1 µM	> 100 µM	8.5 µM	22.7 µM	13.8 µM	> 32.7 µM	> 88.2 µM	> 53.3 µM	> 100 µM	2.49 µM	5.41 µM	2.99 µM	2.79 µM	3.7 µM	3.19 µM	2.38 µM	3.02 µM	2.73 µM	3.18 µM
COC(=O)c1ccc(-c2nc3cc(F)c(F)cc3nc2C#N)cc1	16.3 µM	26.3 µM	26.6 µM	16.5 µM	18.5 µM	18.8 µM	5.83 µM	23.6 µM	4.9 µM	4.99 µM	1.9 µM	11.5 µM	11.7 µM	7.64 µM	8.48 µM	10.2 µM	2.66 µM	8.86 µM	1.66 µM	1.71 µM
Clc1ccc(N2COOC3(OOC2)C2CC4CC(C2)CC3C4)cc1	> 39.5 µM	6.03 µM	> 75.3 µM	> 100 µM	19.5 µM	> 100 µM	> 43 µM	> 46.1 µM	> 56.9 µM	39.1 µM	0.543 µM	0.622 µM	5.11 µM	14.4 µM	0.299 µM	> 54.4 µM	1.01 µM	3.98 µM	5.35 µM	13.2 µM
CCNCCNc1cc(-c2ccc(Cl)cc2)c(C#N)c2nc3ccccc3n12	3.06 µM	2.89 µM	3.39 µM	3.38 µM	3.28 µM	3.92 µM	3.65 µM	3.05 µM	3.85 µM	2.85 µM	1.29 µM	1.48 µM	1.86 µM	1.69 µM	1.63 µM	2.18 µM	1.85 µM	1.37 µM	1.89 µM	1.45 µM
O=C1CC2(CCCc3sccc32)C(=O)N1 (stereo not given)	> 100 µM	> 100 µM	> 100 µM	> 100 µM	> 100 µM	> 100 µM	> 100 µM	> 100 µM	> 100 µM	> 100 µM										
Cc1c(C(=O)CCl)c(=O)n(-c2ccccc2)n1C	17.3 µM	16.6 µM	37.5 µM	6.98 µM	12 µM	16.3 µM	18.9 µM	11.6 µM	28.6 µM	4.94 µM	2.76 µM	4.54 µM	11.4 µM	1.31 µM	3.2 µM	2.58 µM	4.78 µM	2.73 µM	5.93 µM	1.98 µM
COc1ccc(/C=C(\C#N)n2nnc3cc(Cl)ccc32)cc1	> 100 µM	> 43.5 µM	> 75.2 µM	11.3 µM	> 100 µM	> 100 µM	9.66 µM	> 33.3 µM	> 100 µM	0.695 µM	0.217 µM	0.593 µM	0.498 µM	1.22 µM	0.461 µM	2.4 µM	0.382 µM	0.375 µM	0.662 µM	0.253 µM
c1ccc(Oc2c3ccccc3nc3ccccc23)cc1	24.7 µM	13.7 µM	15.8 µM	8.71 µM	19.5 µM	26.3 µM	16.9 µM	17.5 µM	16.8 µM	13.2 µM	0.454 µM	3.61 µM	4.91 µM	2.15 µM	6.07 µM	9.59 µM	4.97 µM	2.48 µM	5.27 µM	3.41 µM
CC1/C=C/C=C/CC/C=C/C=C/C=C/C=C/C(OC2OC(C)C(O)C(N)C2O)CC2OC(CC(O)C(O)CCC(O)CC(O)CC(O)CC(=O)OC(C)C(C)C1O)CC(O)C2C(=O)O (stereo not given)	> 100 µM and 150 µg/mL	32.3 µM and 42.7 µg/mL	36.4 µM and 75.7 µg/mL	33 µM and 51.3 µg/mL	31.8 µM and 44.5 µg/mL	32.7 µM and 53.8 µg/mL	38 µM and 55.8 µg/mL	36.4 µM and 150 µg/mL	30.3 µM and 43.8 µg/mL	37.2 µM and 150 µg/mL	74.9 µg/mL	22.8 µg/mL	31.2 µg/mL	28.1 µg/mL	23.5 µg/mL	28.9 µg/mL	28.8 µg/mL	128 µg/mL	23.4 µg/mL	101 µg/mL
C[C@@H](Oc1cc(-c2cnn(C3CCNCC3)c2)cnc1N)c1c(Cl)ccc(F)c1Cl	2.3 µM	> 10 µM	> 10 µM	2.61 µM	> 10 µM	3.15 µM	4.66 µM	2.43 µM	> 10 µM	> 10 µM	0.267 µM	2.97 µM	1.35 µM	1.22 µM	3.39 µM	1.52 µM	1.54 µM	0.457 µM	1.8 µM	3.26 µM
COc1cc(/C=C2\CC(C)CC3C2=NN(c2ccccc2)C3c2cc(OC)c(OC)c(OC)c2)cc(OC)c1OC (stereo not given)	> 100 µM	44.6 µM	> 100 µM	> 100 µM	> 100 µM	> 100 µM	57.1 µM	> 100 µM	> 100 µM	> 100 µM	6.4 µM	11 µM	16.9 µM	21.3 µM	26.7 µM	20.4 µM	11.7 µM	10.6 µM	19.8 µM	14.1 µM
O=C1NC(=O)C2=C1CCC2O (stereo not given)	> 100 µM	> 100 µM	> 100 µM	> 100 µM	> 100 µM	> 100 µM	> 100 µM	> 100 µM	> 100 µM	> 100 µM										
